Experimental data taken from US20120328526A1, “Modulation of Nad+ Activity in Neuropathophysiological Conditions and Uses Thereof” (University of Maryland, Baltimore, priority 2011, published 2012).

System: synaptosomes
Test: NAD+ uptake by isolated synaptosomes (synaptosomal NAD(H) levels)
Parameters: species or system mouse

Row | Compound | increase of synaptosomal NAD(H) levels compared to control samples (synaptosomes incubated with 10 mM NAD+) | uptake of NAD+ by synaptosomes (purinergic receptor P2X(7)-gated channels inhibitor)
1 | NC(=O)c1ccc[n+]([C@@H]2O[C@H](COP(=O)([O-])OP(=O)(O)OC[C@H]3O[C@@H](n4cnc5c(N)ncnc54)[C@H](O)[C@@H]3O)[C@@H](O)[C@H]2O)c1 [NAD^+, nicotinamide adenine dinucleotide] | 2 fold | –
2 | brilliant blue | – | blocked
